A short description of series [1]: Water solubility testing of compounds (HPLC). The following applies: deionized water, 37 °C; for solubility: water, Water-solubility.
The subject of the next series is MDSCs. The series can be described thus: Inhibition of MDSC chemotaxis (Transwell, tumor-conditioned medium). Format: cell-based, mouse. Conditions: for inhibition at 1 µM / inhibition at 10 µM: Mus musculus, read-out: Suppression Rate (MDSC chemotaxis); for inhibition of MDSC chemotaxis compared to Arg: result in words. On the set-up: inhibition of MDSC chemotaxis compared to Arg: dose or concentration left out as unconfirmed. As to the method:
Hepa1-6 mouse hepatocellular carcinoma cells were uniformly seeded into 6-well plates. After cells reached confluence, supernatant was aspirated, and 1-1.5 mL fresh medium was added to each well. Following 24 h culture, supernatant was collected, centrifuged at 1600 rpm for 5 min, aspirated, and filtered through a 0.22 μm membrane to obtain tumor-conditioned medium for subsequent use. […] Under sterile conditions, remove the tibia, cut both ends of the bone, and aspirate the bone marrow into a 1 mL syringe. Repeat flushing into a 15 mL centrifuge tube. Centrifuge at 1600 rpm for 5 min to collect bone marrow cells. Wash twice with 1×PBS. […] Count cells, adjust density to 1×10^6 cells/mL, and uniformly seed into 24-well plates at 300 μL per well. […] Centrifuge at 1600 rpm for 5 min, remove supernatant, resuspend cells in 300 μL fresh medium, and place into Transwell chambers. […] Co-culture for 24 h.

A further series has as its system T cells / MDSCs. The series can be described thus: Promotion of T cell proliferation in a co-culture model of MDSCs and T cells. Format: cell-based, mouse. Conditions: for T-cell proliferation rate (%) / T cell proliferation in MDSC-T cell co-culture: 1 μM; for T-cell proliferation rate (%): MDSCs treated 12 hours, co-culture of MDSCs and T cells, compared to the control group; for T cell proliferation in MDSC-T cell co-culture: result in words; for activation at 1 µM: Mus musculus, T-cell, 12 h, read-out: T-cell proliferation rate (%), 1 μM, MDSCs treated 12 hours, co-culture of MDSCs and T cells, compared to the control group. The essentials: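 Bone-marrow MDSCs, after compound treatment, were co-cultured 48 h at 1:1 with CFDA-SE-labelled (10 μM solution), activated splenic T cells. Proliferation of CD3+ T cells was read by flow cytometry.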

For another series, the system named is CCR2 mRNA. The series is described as follows: Inhibition of CCR2 mRNA level in MDSCs. Format: cell-based. The following applies: Mus musculus, 2 h, read-out: Suppression Rate (inhibition of CCR2 mRNA levels). As to the method: Under sterile conditions, the tibia was removed, both ends of the bone were cut, and bone marrow was repeatedly flushed into a 15 mL centrifuge tube using a 1 mL syringe filled with culture medium. Centrifuge at 1600 rpm for 5 min to collect bone marrow cells. […] Count cells and adjust density to 1×10^6 cells/mL in complete medium. Seed cells uniformly into 6-well plates at 2 mL per well. […] After incubation, collect cells into centrifuge tubes, centrifuge at 1600 rpm for 5 min, wash once with 1×PBS, and add 500 μL RNA extraction reagent to each tube. After centrifugation to obtain the pellet, add 20 μL DEPC-treated water to each tube to dissolve the pellet. Determine RNA concentration and reverse transcribe to cDNA. Add the cDNA, primers, and […] to a 96-well plate. Centrifuge at 4000 rpm for 5 min, then place in a PCR instrument for detection.

A short description of series [2]: Conversion (release) of prodrug salts to parent compound in HEPES buffer pH 7.4. Format: in vitro ADME. Conditions: for Release rate (conversion to Compound 83): HEPES pH 7.4, 37 °C. Put shortly:
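Salt dissolved in water, mixed 1:1 with HEPES solution pH 7.4 (NaCl, KCl, Na2HPO4, glucose) and held at 37° C. At 1, 2, 4, 8 and 12 h, samples were methanol-quenched, centrifuged and analysed by reversed-phase HPLC at 210 nm, with peak areas recorded for conversion to parent compound.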

Series [3] can be described thus: Conversion (release) of prodrug salts to parent compound in mouse plasma. Conditions: 37 °C. Format: in vitro ADME. The essentials:
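Salts (0.6 mg in 250 μL water) were mixed 1:1 with heparinized mouse plasma or HEPES pH 7.4 and incubated at 37 °C. Samples were methanol-quenched and taken at 1–12 h. Parent compound was quantified by C18 HPLC-UV at 210 nm using peak areas.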

Series [4] relates to fibrosis-related factors (Acta2, Col1a1, Tgfb1) in liver tissue. The series can be described thus: CCl4-induced acute liver injury, liver fibrosis-related factor mRNA. Format: in vivo, C57BL/6 mice. Further details: unit not given here. The following applies: 200 mg/kg. As to the method:
(§1) They were acclimated for 7 days before use in experiments.
(§2) Mice were randomly assigned to groups. One group was arbitrarily designated as the normal group, while the remaining groups served as model group, Compound 1 group, Hydrochloride 20 group, Fumarate 21 group, and Silibinin group, with 6 mice per group. Except for the normal group receiving 10 mL olive oil/kg via injection, all other mice received 0.5 mL CCl4+9.5 mL olive oil/kg body weight via intraperitoneal injection, maintaining a CCl4 to olive oil ratio of 1:19. Starting from day 1 of modeling, Compound 1, Hydrochloride 20, and Fumarate 21 were administered orally for 3 consecutive days.
(§3) The blood was allowed to stand at room temperature for 2 hours, then centrifuged at 3000 rpm for 20 minutes. Serum was aspirated, aliquoted, and stored at −70° C. for future use. After blood collection, euthanize mice by cervical dislocation. Perform laparotomy to remove the liver. Rinse twice with pre-chilled PBS. Excise the left hepatic lobe tissue. […] Store remaining tissue at −70° C. for future use.
Q-PCR Analysis: Tissue total RNA extraction, cDNA synthesis, and PCR amplification methods are identical to Example 4. Additional primer information is as follows:
(§4) Data Statistics: All data are expressed as means f standard error of the mean (S.E.M.). Differences were analyzed for significance using analysis of variance (ANOVA). For groups showing significant differences in ANOVA, one-way ANOVA followed by Dunnett's test was performed to compare intergroup differences.

Another series deals with serum ALT and AST. The series is described as follows: CCl4-induced acute liver injury, serum ALT and AST. Format: in vivo, C57BL/6 mice. Conditions: 200 mg/kg. As to the method:
as §1, §2, §3
Serum AST and ALT Assay: Use 10 μL of each sample for testing. Determine mouse serum AST and ALT levels according to the operating manual. Measure absorbance at 510 nm using an enzyme-linked immunosorbent assay (ELISA) reader. Calculate sample concentration (U/L) based on the standard curve.
as §4

The values that follow come from patent US20260315434A1, “USE OF GUAIACOL SESQUITERPENE LACTONE DERIVATIVES” (NANJING UNIVERSITY OF CHINESE MEDICINE, priority 2023, published 2026).

The solubility is how much of the substance goes into solution per volume.

Values after ≈ are worked out from the molar mass of the structure shown. Some results are limits rather than exact numbers.

In series [1], `C=C1C(=O)O[C@H]2[C@H]1CCC(C)=C1CC[C@@](C)(OC(=O)NCCN3CCOCC3)[C@@H]12` [Compound 78] showed a Water-solubility of 200 µg/mL. In the series on MDSCs, the inhibition at 1 µM is 29% and the inhibition at 10 µM was 67.1%. For the same compound, in the series on T cells / MDSCs, the “T-cell proliferation rate (%)” value is “+++ (T-cell proliferation rate >40% compared to the control group)” and the “T cell proliferation in MDSC-T cell co-culture” value (shortened to “T cell proliferation”) is “significantly enhanced T-cell proliferation”. Moreover, in the series on CCR2 mRNA, the inhibition at 1 µM is 23% and the inhibition at 10 µM came out at 52.7%.
Regarding `C=C1C(=O)O[C@H]2[C@H]1CCC(C)=C1CC[C@@](C)(OC(=O)N3CCCC3)[C@@H]12` [Compound 82], the solubility in series [1] worked out at 148 µg/mL (≈ 0.428 mM). In the series on MDSCs, the inhibition at 1 µM came out at 38.5%, the inhibition at 10 µM was determined as 77.6% and the “inhibition of MDSC chemotaxis compared to Arg” value is reported as “superior inhibition rates”. In the series with T cells / MDSCs, the “T cell proliferation” value is “significantly enhanced T-cell proliferation” and the activation at 1 µM was more than 40%. In the series with CCR2 mRNA, the inhibition at 1 µM was 28.5% and the inhibition at 10 µM was determined as 74.4%.
Regarding `C=C1C(=O)O[C@H]2[C@H]1CCC(C)=C1CC[C@@](C)(OC(=O)N3CCCCC3)[C@@H]12` [Compound 83], in series [1], the Water-solubility was determined as 152 µg/mL. In the series with MDSCs, the inhibition at 1 µM turned out to be 29.4%, the inhibition at 10 µM was 75.9% and the “inhibition of MDSC chemotaxis compared to Arg” value is recorded as “superior inhibition rates”. For the same compound, in the series on T cells / MDSCs, the “T cell proliferation” value is recorded as “significantly enhanced T-cell proliferation” and the activation at 1 µM was more than 40%. Further, in the series on CCR2 mRNA, the inhibition at 1 µM was determined as 17% and the inhibition at 10 µM came to 70%.
In series [1], `CC1=C2CC[C@@](C)(OC(=O)N3CCCCC3)[C@@H]2[C@H]2OC(=O)[C@@H](CN3CCCC3)[C@@H]2CC1` [Compound 100] showed a solubility of 145000 µg/mL (≈ 336 mM). Besides, the degraded at 1 h in series [2] (hepes buffer, pH 7.4, HEPES pH 7.4, 37 °C, 1 h, read-out: Release rate (conversion to Compound 83)) was 6.5%. In addition, in series [2] (hepes buffer, pH 7.4, HEPES pH 7.4, 37 °C, 2 h, read-out: Release rate (conversion to Compound 83)), the degraded at 2 h is 14%. The degraded at 4 h in series [2] (hepes buffer, pH 7.4, HEPES pH 7.4, 37 °C, 4 h, read-out: Release rate (conversion to Compound 83)) is 26.4%. The degraded at 8 h in series [2] (hepes buffer, pH 7.4, HEPES pH 7.4, 37 °C, 8 h, read-out: Release rate (conversion to Compound 83)) came to 45.2%. Further, the degraded at 12 h in series [2] (hepes buffer, pH 7.4, HEPES pH 7.4, 37 °C, 12 h, read-out: Release rate (conversion to Compound 83)) came out at 51.4%. Besides, the “T-cell proliferation rate (%)” value with T cells / MDSCs is recorded as “+ (T-cell proliferation rate within the 0-20% range compared to the control group)”. For the same compound, the metabolised at 1 h in series [3] (mouse, plasma, 1 h, read-out: Release rate (conversion to Compound 83)) was determined as 6.6%. For the same compound, the metabolised at 2 h in series [3] (mouse, plasma, 2 h, read-out: Release rate (conversion to Compound 83)) amounted to 13.8%. For the same compound, in series [3] (mouse, plasma, 4 h, read-out: Release rate (conversion to Compound 83)), the metabolised at 4 h is 25.6%. Moreover, the metabolised at 8 h in series [3] (mouse, plasma, 8 h, read-out: Release rate (conversion to Compound 83)) was determined as 43.2%. Further, the metabolised at 12 h in series [3] (mouse, plasma, 12 h, read-out: Release rate (conversion to Compound 83)) is 53%.
With `CC1=C2CC[C@@](C)(OC(=O)N3CCCCC3)[C@@H]2[C@H]2OC(=O)[C@@H](CN3CCCC3)[C@@H]2CC1` [Compound 101], the Water-solubility in series [1] was determined as 108000 µg/mL. In addition, the “Release rate (conversion to Compound 83)” value in series [2] (1 h, 60 min) came out at 7.0%; in series [2] (2 h, 120 min), 16.0%; in series [2] (4 h, 240 min), 28.2%; in series [2] (8 h, 480 min), 46.4%; in series [2] (12 h, 720 min) it was 53.6%; in series [3] (1 h, 60 min), 7.6%. Moreover, the “Release rate (conversion to Compound 83)” value is reported as 16.6% in series [3] (2 h, 120 min); 27.4% in series [3] (4 h, 240 min); 46.0% in series [3] (8 h, 480 min); 54.2% in series [3] (12 h, 720 min). In the series with T cells / MDSCs, the “T-cell proliferation rate (%)” value is on record as “+ (T-cell proliferation rate within the 0-20% range compared to the control group)”.
In the case of Silybin [reference compound], in series [4], the “Acta2 mRNA expression, liver” value is given as 2.91 ± 0.48; the “Col1a1 mRNA expression, liver” value worked out at 1.84 ± 0.17; the “Tgfb1 mRNA expression, liver” value is given as 1.11 ± 0.08. Moreover, in the series with serum ALT and AST, the ALT is reported as 121.58 ± 15.45 U/L and the AST is given as 301.45 ± 38.44 U/L.
